Source: patent US20230365542A1, “Selective Agonists of 5-HT2A Receptor and Methods of Use” (Yale University, priority 2020, published 2023)
Entries after “also recorded” stand apart in the source; their conditions may differ.

Columns and labels:
[1] = tested on: C57BL/6J mice; test: Head twitch response (HTR) in mice; type: in vivo; settings: first 30 min after injection (i.p.)
Protocol: (§1) Open field: this apparatus has been described in the literature (Acta Crystallographica Section D, 2010, 66:486-501). Mice were placed into the open field for 30 min, injected with vehicle, (+)-LSD-(+)-tartrate (NIDA Drug Supply Program, Bethesda, MID), 38, or 33 (i.p.), and returned immediately to the open field for 30 min. Locomotion was monitored using Fusion Integra software (Omnitech, Columbus, OH).
Head twitch response: HTRs were filmed in the open field and were scored following drug administration for 30 min as described in the literature (Acta Crystallographica Section D, 2019, 75:861-877).
(§2) Statistics: Statistical analyses were performed with IBM SPSS Statistics 27 programs (IBM, Chicago, IL). The data are presented as means and standard errors of the mean. No sex effects were detected. One- or two-way ANOVA or repeated measures ANOVA (RMANOVA) were used, followed by Bonferroni corrected post-hoc analyses. A p<0.05 was considered significant. All behavioral results were plotted using GraphPad Prism.

[2] = tested on: C57BL/6J mice; test: Open field locomotion in mice; type: in vivo; settings: i.p.
Protocol: as §1, §2

[3] = target: T1, 5-HT2CR (Homo sapiens, UniProt P28335); test: Calcium flux assay (FLIPR, Fluo-4), 5-HT2CR stable cell line; type: cell-based
T1 sequence (P28335 33-458): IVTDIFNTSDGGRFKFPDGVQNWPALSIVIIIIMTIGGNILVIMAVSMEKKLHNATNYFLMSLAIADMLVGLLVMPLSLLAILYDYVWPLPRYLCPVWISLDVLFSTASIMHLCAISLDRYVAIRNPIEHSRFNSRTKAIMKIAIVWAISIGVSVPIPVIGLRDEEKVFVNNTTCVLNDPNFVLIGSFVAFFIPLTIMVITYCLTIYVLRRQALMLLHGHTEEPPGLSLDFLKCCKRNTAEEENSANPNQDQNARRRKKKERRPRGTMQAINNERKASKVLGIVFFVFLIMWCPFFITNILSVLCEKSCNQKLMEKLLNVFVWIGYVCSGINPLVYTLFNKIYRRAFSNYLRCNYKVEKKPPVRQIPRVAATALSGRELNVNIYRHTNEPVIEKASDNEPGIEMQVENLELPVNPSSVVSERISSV
Protocol: (§3) Stable cell lines for 5-HT2AR, 5-HT2BR and 5-HT2CR generated using the Flp-In 293 T-Rex Tetracycline inducible system (Invitrogen). Tetracycline-induced cells were seeded in 384-well poly-L-lysine plates at a density of 10,000 cells/well in DMEM containing 1% dialyzed FBS at least 16-24 hr before the calcium flux assay. On the day of the assay, the cells were incubated (20 ul/well) for 1 hr at 37° C. with Fluo-4 Direct dye (Invitrogen) reconstituted in FLIPR buffer (1×HBSS, 2.5 mM probenecid, and 20 mM HEPES, pH 7.4). After dye loading, cells were placed in a FLIPR^TETRA fluorescence imaging plate reader (Molecular Dynamics). Drug dilutions were prepared at 3× final concentration in drug buffer (1×HBSS, 20 mM HEPES, 0.1% BSA, 0.01% ascorbic acid, pH 7.4) and aliquoted into 384-well plates and placed in the FLIPR^TETRA for drug stimulation. The fluidics module and plate reader of the FLIPR^TETRA were programmed to read baseline fluorescence for 10s (1 read/s), then 10 ul of drug/well was added and read for 5 min (1 read/s). Fluorescence in each well was normalized to the average of the first 10 reads (i.e., baseline fluorescence). Then, the maximum-fold increase, which occurred within the first 60 s after drug addition, was determined and fold over baseline was plotted as a function of drug concentration. Data were normalized to % 5-HT stimulation and analyzed using “log(agonist) vs. response” in GraphPad Prism 9.0.

[4] = target: T1, 5-HT2CR; test: 5-HT2CR binding affinity (Ki), Table 8; settings: read-out: 5-HT2CR Ki
[5] = tested on: wild-type (WT) and vesicular monoamine transporter 2 (VMAT2) heterozygous (HET) mice; test: Tail suspension test (immobility time) in wild-type and VMAT2 heterozygous mice; type: in vivo; settings: 30 min after administration; for immobility time during the tail suspension test: compared to vehicle
Protocol: Tail suspension: This test was conducted as described in the literature (Acta Crystallographica Section D, 2010, 66:486-501). […] Immobility times were assessed over 6 min using MedAssociates software.

[6] = target: T2, 5-HT2BR (Homo sapiens, UniProt P41595); test: 5-HT2BR binding affinity (Ki), Table 8; settings: read-out: 5-HT2BR Ki
T2 construct: expressed in transfected cells; host or cells: Flp-In 293 T-Rex (tetracycline inducible)

[7] = target: T3, 5-HT2AR (Homo sapiens, UniProt P28223); test: 5-HT2AR binding affinity (Ki), Table 8; settings: read-out: 5-HT2AR Ki
T3 construct: expressed in transfected cells; host or cells: Flp-In 293 T-Rex (tetracycline inducible)

[8] = target: T2, 5-HT2BR; test: Calcium flux assay (FLIPR, Fluo-4), 5-HT2BR stable cell line; type: cell-based
[9] = target: T3, 5-HT2AR; test: Calcium flux assay (FLIPR, Fluo-4), 5-HT2AR stable cell line; type: cell-based
Protocol: as §3

T3 sequence (P28223 whole entry): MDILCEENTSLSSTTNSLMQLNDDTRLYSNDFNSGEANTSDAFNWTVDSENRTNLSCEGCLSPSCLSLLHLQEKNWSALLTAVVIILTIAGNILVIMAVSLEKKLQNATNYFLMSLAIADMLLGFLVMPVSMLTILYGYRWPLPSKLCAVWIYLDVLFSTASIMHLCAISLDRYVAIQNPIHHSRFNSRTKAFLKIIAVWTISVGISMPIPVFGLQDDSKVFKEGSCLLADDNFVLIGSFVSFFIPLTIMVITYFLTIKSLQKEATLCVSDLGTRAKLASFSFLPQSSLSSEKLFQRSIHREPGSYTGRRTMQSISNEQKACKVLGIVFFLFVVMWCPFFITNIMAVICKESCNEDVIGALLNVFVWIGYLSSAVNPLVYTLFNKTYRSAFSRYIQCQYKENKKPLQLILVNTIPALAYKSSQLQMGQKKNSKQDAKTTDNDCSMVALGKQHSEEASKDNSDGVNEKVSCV
T2 sequence (P41595 whole entry): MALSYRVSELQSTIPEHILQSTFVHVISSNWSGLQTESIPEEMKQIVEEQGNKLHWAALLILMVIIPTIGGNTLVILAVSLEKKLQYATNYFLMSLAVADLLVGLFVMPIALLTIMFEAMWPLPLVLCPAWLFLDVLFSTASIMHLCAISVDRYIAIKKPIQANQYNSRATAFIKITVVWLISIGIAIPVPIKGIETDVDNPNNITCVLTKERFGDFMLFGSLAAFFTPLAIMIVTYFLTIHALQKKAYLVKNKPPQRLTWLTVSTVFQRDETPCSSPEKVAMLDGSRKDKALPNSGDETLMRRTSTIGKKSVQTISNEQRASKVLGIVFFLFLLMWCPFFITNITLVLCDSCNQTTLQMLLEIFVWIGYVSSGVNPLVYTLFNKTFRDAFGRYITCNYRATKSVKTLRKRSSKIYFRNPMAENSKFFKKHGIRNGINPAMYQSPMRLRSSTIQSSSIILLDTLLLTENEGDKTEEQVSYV

Compound: CCN(CC)C(=O)[C@@H]1C=C2c3cccc4[nH]cc(c34)C[C@H]2N(C)C1 [LSD, reference compound]
- head twitch responses (HTRs) ([1]; 0.3 mg/kg LSD): stimulated
- distance travelled in the open field, locomotion post injection (31-60 min) ([2]; 0.3 mg/kg LSD): significantly higher

Compound: C[C@@H]1C=C(c2c[nH]c3ncccc23)CN(C)C1 [compound 33, (R)-3-(1,5-dimethyl-1,2,5,6-tetrahydropyridin-3-yl)-1H-pyrrolo[2,3-b]pyridine]
- head twitch responses (HTRs) ([1]; 1 mg/kg): neither 38 nor 33 induced substantial HTRs; also recorded: not different from each other
- EC50 ([3]; read-out: 5-HT2CR EC50): 3250 nM
- 5-HT2CR Rmax ± S.E.M ([3]; value in parentheses): (51.7%
- Ki [4]: 480 nM
- immobility time during the tail suspension test, HET mice versus WTs given the same treatment ([5]; 1 mg/kg i.p., p=0.051): less time immobile
- immobility time during the tail suspension test ([5]; VMAT2 HET mice, 0.5 mg/kg i.p.): reduced immobility time significantly
- immobility time during the tail suspension test ([5]; VMAT2 HET mice, 1 mg/kg i.p., 1 mg/kg): restored wild-type levels of mobility; also recorded: reduced immobility time significantly
- immobility time during the tail suspension test ([5]; WT mice, 0.5 mg/kg i.p.): no effects
- immobility time during the tail suspension test ([5]; WT mice, 1 mg/kg i.p.): no effects
- Ki [6]: 440 nM
- Ki [7]: 880 nM
- distance travelled in the open field, locomotion post injection (31-60 min) ([2]; 1 mg/kg): do not enhance locomotion; also recorded: not different from one another
- EC50 ([8]; read-out: 5-HT2BR EC50): 700 nM
- 5-HT2BR Rmax ± S.E.M ([8]; value in parentheses): (50.5%
- EC50 ([9]; bracketed value below EC50, read-out: 5-HT2AR pEC50 ± S.E.M (converted)): 110 nM
- 5-HT2AR Rmax ± S.E.M ([9]; value in parentheses): (73.3%
